Values quoted from earlier work, collected in PMC8511391, “Optimization of Pichia pastoris Expression System for High-Level Production of Margatoxin” (Frontiers in Pharmacology, 2021).

Experiments:
Kv1.1 = settings: abstract, ref not given; cited from earlier work
Source text: Margatoxin (MgTx) is a high-affinity blocker of voltage-gated potassium (Kv) channels. […] This toxin is widely used to study physiological function of Kv ion channels in various cell types, including immune cells. Isolation of native MgTx in large quantities from scorpion venom is not affordable. Chemical synthesis and recombinant production in Escherichia coli need in vitro oxidative refolding for proper disulfide bond formation, resulting in a very low yield of peptide production. The Pichia pastoris expression system offers an e ...

Kv1.2 = settings: 2014, cited from earlier work
Method: Margatoxin (MgTx) is a 39-amino-acid peptide toxin isolated from the venom of the scorpion Centruroides margaritatus. Its 3D structure consists of an α-helix and three antiparallel β-strands stabilized by three disulfide bonds. […] Previous studies report the production of recombinant MgTx (rMgTx) in E. coli and P. ... || Pharmacological activity of both versions of rMgTx was evaluated by studying their effect on the hKv1.2 and hKv1.3 ion channels. The hKv1.2 current was recorded in CHO cells, which heterologously expressed the hKv1.2 ion channel, and hKv1.3 current was recorded in the human peripheral blood lymphocytes. The stimulation of the hKv1.3 channel expression (activation of isolated mononuclear cells by PHA, see the Materials and Methods section) and recording conditions (no Ca^2+ in the pipette to elicit Ca^2+-activated K^+ channels) guaranteed that the current recorded in these cells is K^+ current ... || The kinetics of current block by UrMgTx was consistent with previously reported data for MgTx. […] The association rate of TrMgTx, which has the N-terminal His-tag, was ∼1.6-fold lower than that of UrMgTx for both hKv1.2 and hKv1.3. The reduced k on rate could be explained by non–diffusion-limited bimolecular toxin–channe ...

Kv1.3 = settings: 2014, cited from earlier work
Method: Voltage-gated potassium (Kv) channels are present in a variety of cells and tissues where they regulate multiple physiological processes, including cardiac function, neural excitability, muscle contraction, cell proliferation, cell volume control, and hormonal secretion ([Coetzee et al., 1999]; [Giangiacomo et al., 2004]). […] Previous studies report the production of recombinant MgTx (rMgTx) in E. coli and P. ... || Pharmacological activity of both versions of rMgTx was evaluated by studying their effect on the hKv1.2 and hKv1.3 ion channels. The hKv1.2 current was recorded in CHO cells, which heterologously expressed the hKv1.2 ion channel, and hKv1.3 current was recorded in the human peripheral blood lymphocytes. The stimulation of the hKv1.3 channel expression (activation of isolated mononuclear cells by PHA, see the Materials and Methods section) and recording conditions (no Ca^2+ in the pipette to elicit Ca^2+-activated K^+ channels) guaranteed that the current recorded in these cells is K^+ current ... || (+ 2 further places)

[1] = ref Garcia-Calvo et al., 1993, Bartok et al.

## MgTx (TIINVKCTSPKQCLPPCKAQFGQSAGAKCMNGKCKCYPH; UniProt P40755 1-39, looked up)
Kv1.1
  inhibition of Kv1.1: in picomolar concentrations
Kv1.2; hKv1.2, whole-cell patch-clamp, ref Bartok et al.
  kinetics and reversibility of block, hKv1.2: develops relatively slowly and reversibility of the block is limited
Kv1.2; [1]
  inhibition of Kv1.2: high potency in picomolar concentrations
Kv1.3; hKv1.3, whole-cell patch-clamp, ref Bartok et al.
  kinetics and reversibility of block, hKv1.3: equilibrium block develops rapidly and is fully recoverable upon washout
Kv1.3; [1]
  inhibition of Kv1.3: high potency in picomolar concentrations
